The record followed here is US7183295B2, “PPAR-activating compound and pharmaceutical composition comprising the compound” (Kowa Co., Ltd., priority 2003, dated 2007).

A value given as a limit tells only on which side of the number the result lay.

Common to all, as to format: cell-based
Assay [1] addresses T1, human PPARδ (137–441aa) ligand binding domain (Homo sapiens, UniProt Q03181).
T1 construct: δ (137–441aa); expressed in transfected cells; host or cells: COS-7
T1 sequence (Q03181 137-441): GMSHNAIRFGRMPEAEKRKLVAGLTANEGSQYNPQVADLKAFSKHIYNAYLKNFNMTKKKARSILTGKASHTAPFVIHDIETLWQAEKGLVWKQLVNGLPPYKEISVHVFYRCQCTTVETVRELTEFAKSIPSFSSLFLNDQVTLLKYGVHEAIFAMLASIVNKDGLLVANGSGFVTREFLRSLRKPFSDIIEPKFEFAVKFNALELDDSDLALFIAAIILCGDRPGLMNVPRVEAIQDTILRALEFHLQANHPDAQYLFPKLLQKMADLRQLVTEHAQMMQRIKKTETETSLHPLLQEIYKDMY
Put plainly: PPAR transfection (Gal4-LBD luciferase reporter) assay, hPPARδ. The following applies: transfected COS-7 cells, 16 hours, luciferase activity; read-out: hPPAR; EC50 δ (agonist activity). As for the experimental part: (§1) COS-7 cells, which is African green monkey kidney cell line, were used for all transfection assays. Cells were cultured in DMEM medium supplemented with 10% fetal bovine serum, glutamic acid, and an antibiotic under humidified 5% CO2 atmosphere.
(§2) Cells were transfected by lipofectamine reagent with a mixture containing expression plasmid, firefly luciferase reporter plasmid. And a β-galactosidase expression plasmid used as an internal control for transfection efficiency.
(§3) Transiently transfected cells were incubated with DMEM with 0.2% FCS with or without compound. And after 16 hours, luciferase activity and β-galactosidase activity of cell lysate were measured.
(§4) Each compound was dissolved in and diluted with dimethyl sulfoxide (DMSO), and the DMSO concentration of the DMEM medium (containing 0.2% serum) was adjusted to 0.1% upon treatment of cells.

Assay [2] has as its target T2, human PPARα (166–467aa) ligand binding domain (Homo sapiens, UniProt Q07869).
T2 construct: human PPARα (166–467aa); expressed in transfected cells; host or cells: COS-7
T2 sequence (Q07869 166-467): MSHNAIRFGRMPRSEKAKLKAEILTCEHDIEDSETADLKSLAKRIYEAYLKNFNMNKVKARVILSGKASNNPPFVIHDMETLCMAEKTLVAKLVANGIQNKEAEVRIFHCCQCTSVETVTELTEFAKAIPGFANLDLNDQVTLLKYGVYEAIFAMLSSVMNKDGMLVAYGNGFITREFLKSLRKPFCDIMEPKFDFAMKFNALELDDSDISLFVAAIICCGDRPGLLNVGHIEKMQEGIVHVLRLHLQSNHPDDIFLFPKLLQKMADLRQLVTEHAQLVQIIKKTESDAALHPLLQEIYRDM
Put plainly: PPAR transfection (Gal4-LBD luciferase reporter) assay, hPPARα. The following applies: transfected COS-7 cells, 16 hours, luciferase activity; read-out: hPPAR; EC50 α (agonist activity). The protocol:
as §1, §2, §3, §4

Assay [3] addresses T3, human PPARγ (182–505aa) ligand binding domain (Homo sapiens, UniProt P37231).
T3 construct: γ(182–505aa); expressed in transfected cells; host or cells: COS-7
T3 sequence (P37231 182-505): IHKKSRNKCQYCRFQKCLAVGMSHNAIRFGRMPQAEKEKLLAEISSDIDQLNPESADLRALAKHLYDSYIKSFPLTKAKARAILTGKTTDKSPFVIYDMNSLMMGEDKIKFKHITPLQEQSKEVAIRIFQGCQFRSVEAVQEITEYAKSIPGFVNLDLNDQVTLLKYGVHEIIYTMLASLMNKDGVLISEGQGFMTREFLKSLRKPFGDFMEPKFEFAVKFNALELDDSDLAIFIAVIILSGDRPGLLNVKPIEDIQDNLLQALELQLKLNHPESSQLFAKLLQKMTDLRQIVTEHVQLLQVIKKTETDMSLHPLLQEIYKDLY
Put plainly: PPAR transfection (Gal4-LBD luciferase reporter) assay, hPPARγ. The following applies: transfected COS-7 cells, 16 hours, luciferase activity; read-out: hPPAR; EC50 γ (agonist activity). As for the experimental part:
as §1, §2, §3, §4
A general note: Reporter assays use an easily measured gene product as a stand-in for the process of interest.

`CC(Oc1cccc(CCN(CCOc2ccc(F)cc2)c2nc3ccccc3o2)c1)C(=O)O` (stereo not shown) [Example 34, 2-[3-[2-[N-(Benzoxazol-2-yl)-N-2-(4-fluorophenoxy)ethyl]aminoethyl]phenoxy]propionic acid]: the EC50 in assay [1] was determined as 1600 nM; in assay [2], 60 nM; in assay [3] it was 1200 nM.
For `CCC(Oc1cccc(CCN(CCCOc2ccc(OC)cc2)c2nc3cc(F)ccc3o2)c1)C(=O)O` (stereo not shown) [Example 49, 2-[3-[2-[N-(5-Fluorobenzoxazol-2-yl)-N-3-(4-methoxyphenoxy)propyl]aminoethyl]phenoxy]butyric acid], the EC50 in assay [1] is 1500 nM; in assay [2], 20 nM; in assay [3] it was 1500 nM.
In the case of `CC(C)(Oc1cccc(CN(CCOc2ccc(Cl)cc2)c2nc3ccccc3o2)c1)C(=O)O` [Example 6, 2-[3-[[N-(Benzoxazol-2-yl)-N-2-(4-chlorophenoxy)ethyl]aminomethyl]phenoxy]-2-methylpropionic acid], the results for the EC50 in assay [1], in assay [2] and in assay [3] were above 100000 nM, 70 nM and 3500 nM, respectively.
The matching figures for `CC[C@@H](Oc1cccc(CN(CCCOc2ccccc2)c2nc3ccccc3o2)c1)C(=O)O` [Example 83, (R)-2-[[3-[N-(Benzoxazol-2-yl)-N-3-phenoxypropyl]aminomethyl]phenoxy]butyric acid]: 1600 nM, 2 nM and 910 nM.
In the case of `CCC(Oc1cccc(CCN(CCCOc2ccc(Cl)cc2)c2nc3cc(OC)ccc3o2)c1)C(=O)O` (stereo not shown) [Example 52, 2-[3-[2-[N-3-(4-Chlorophenoxy)propyl-N-(5-methoxybenzoxazol-2-yl)]aminoethyl]phenoxy]butyric acid], the EC50 stood at 400 nM in assay [1], 10 nM in assay [2] and 2000 nM in assay [3].
For `CCC(Oc1cccc(CCN(CCCOc2ccc(F)cc2)c2nc3cc(OC)ccc3o2)c1)C(=O)O` (stereo not shown) [Example 51, 2-[3-[2-[N-3-(4-Fluorophenoxy)propyl-N-(5-methoxybenzoxazol-2-yl)]aminoethyl]phenoxy]butyric acid], the EC50 in assay [1] came out at 1400 nM; in assay [2], 30 nM; in assay [3], 3800 nM.
Taken in the same sequence, the figures for `CCC(Oc1cccc(CN(CCCOc2ccc(C)cc2)c2nc3ccccc3o2)c1)C(=O)O` (stereo not shown) [Example 146] were 100 nM, 1 nM and 200 nM.
Taken in the same sequence, the figures for `O=C(O)COc1cccc(CN(CCCOc2ccccc2)c2nc3ccccc3o2)c1` [Example 12, 3-[[N-(Benzoxazol-2-yl)-N-3-phenoxypropyl]aminomethyl]phenoxyacetic acid] were above 100000 nM, 1200 nM and above 100000 nM.
Turning to `CC(C)(Oc1cccc(CCN(CCOc2ccccc2)c2nc3ccccc3o2)c1)C(=O)O` [Example 78, 2-[3-[2-[N-(Benzoxazol-2-yl)-N-2-phenoxyethyl]aminoethyl]phenoxy]-2-methylpropionic acid], the EC50 was above 100000 nM in assay [1], 30 nM in assay [2] and 1100 nM in assay [3].
Taken in the same sequence, the figures for `CC(Oc1cccc(CN(CCCOc2ccc3c(c2)OCO3)c2nc3ccccc3o2)c1)C(=O)O` (stereo not shown) [Example 157] were 1300 nM, 4 nM and 1200 nM.
Taken in the same sequence, the figures for `CC(Oc1cccc(CCN(CCOc2ccc(F)cc2)c2nc3cc(Cl)ccc3o2)c1)C(=O)O` (stereo not shown) [Example 36, 2-[3-[2-[N-(5-Chlorobenzoxazol-2-yl)-N-2-(4-fluorophenoxy)ethyl]aminoethyl]phenoxy]propionic acid] were 1600 nM, 50 nM and 2100 nM.
For the molecule `CC[C@@H](Oc1cccc(CN(CCCOc2ccc(F)cc2)c2nc3ccccc3o2)c1)C(=O)O` [Example 87, (R)-2-[[3-[N-(Benzoxazol-2-yl)-N-3-(4-fluorophenoxy)propyl]aminomethyl]phenoxy]butyric acid], the results for the EC50 in assay [1], in assay [2] and in assay [3] were 1200 nM, 3 nM and 940 nM, respectively.
Taken in the same sequence, the figures for `CCC(Oc1cccc(CCN(CCOc2ccc(OC)cc2)c2nc3cc(F)ccc3o2)c1)C(=O)O` (stereo not shown) [Example 46, 2-[3-[2-[N-(5-Fluorobenzoxazol-2-yl)-N-2-(4-methoxyphenoxy)ethyl]aminoethyl]phenoxy]butyric acid] were 1800 nM, 10 nM and above 100000 nM.
Taken in the same sequence, the figures for `COc1ccc(OCCCN(Cc2cccc(OC(C)C(=O)O)c2)c2nc3ccccc3s2)cc1` (stereo not shown) [Example 96] were 1200 nM, 1 nM and 1100 nM.
The matching figures for `CC(Oc1cccc(CCN(CCOc2ccc(F)cc2)c2nc3cc(F)ccc3o2)c1)C(=O)O` (stereo not shown) [Example 35, 2-[3-[2-[N-(5-Fluorobenzoxazol-2-yl)-N-2-(4-fluorophenoxy)ethyl]aminoethyl]phenoxy]propionic acid]: 1600 nM, 20 nM and 1200 nM.
With `CC(Oc1cccc(CN(CCCC(=O)c2ccccc2)c2nc3ccccc3o2)c1)C(=O)O` (stereo not shown) [Example 93, 2-[3-[[N-(Benzoxazol-2-yl)-N-(4-oxo-4-phenylbutyl)]aminomethyl]phenoxy]propionic acid], the EC50 in assay [1] is 5100 nM; in assay [2], 9 nM; in assay [3] it was above 10000 nM.
Taken in the same sequence, the figures for `CC(Oc1cccc(CN(CCCOc2ccccc2)c2nc3cc4c(cc3o2)OCO4)c1)C(=O)O` (stereo not shown) [Example 159] were 1500 nM, 9 nM and above 10000 nM.
Regarding `CC(Oc1cccc(CN(CCOc2ccccc2)c2nc3ccccc3o2)c1)C(=O)O` (stereo not shown) [Example 18, 2-[3-[[N-(Benzoxazol-2-yl)-N-2-phenoxyethyl]aminomethyl]phenoxy]propionic acid], the EC50 in assay [1] is above 100000 nM; in assay [2], 70 nM; in assay [3], 1200 nM.
As for `CCC(Oc1cccc(CN(CCCOc2ccccc2)c2nc3ccccc3o2)c1)C(=O)O` (stereo not shown) [Example 13, 2-[3-[[N-(Benzoxazol-2-yl)-N-3-phenoxypropyl]aminomethyl]phenoxy]butyric acid], the EC50 in assay [1] was 2000 nM; in assay [2] it was 10 nM; in assay [3], above 50000 nM.
`CCC(Oc1cccc(CCN(CCOc2ccc(OC)cc2)c2nc3ccccc3o2)c1)C(=O)O` (stereo not shown) [Example 45, 2-[3-[2-[N-(Benzoxazol-2-yl)-N-2-(4-methoxyphenoxy)ethyl]aminoethyl]phenoxy]butyric acid]: the EC50 in assay [1] is 1800 nM; in assay [2] it was 10 nM; in assay [3], 6300 nM.
The matching figures for `COc1ccc(OCCCN(Cc2cccc(O[C@H](C)C(=O)O)c2)c2nc3ccccc3o2)cc1` [Example 82, (R)-2-[3-[[N-(Benzoxazol-2-yl)-N-3-(4-methoxyphenoxy)propyl]aminomethyl]phenoxy]propionic acid]: 2500 nM, 2 nM and 1200 nM.
Turning to `CCC(Oc1cccc(CN(CCCOc2ccc(OC)cc2)c2nc3ccccc3o2)c1)C(=O)O` (stereo not shown) [Example 14, 2-[3-[[N-(Benzoxazol-2-yl)-N-3-(4-methoxyphenoxy)propyl]aminomethyl]phenoxy]butyric acid], the EC50 in assay [1] is 1700 nM; in assay [3] it was above 100000 nM.
`CC[C@@H](Oc1cccc(CN(CCCOc2ccc(OC)cc2)c2nc3ccccc3o2)c1)C(=O)O` [Example 85, (R)-2-[[3-[N-(Benzoxazol-2-yl)-N-3-(4-methoxyphenoxy)propyl]aminomethyl]phenoxy]butyric acid]: the EC50 in assay [1] came to 1600 nM; in assay [3], 1100 nM.
